Reference: PubChem BioAssay (NCI)
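In this assay, cells in 96-well plates receive the compound at five concentrations for 48 hours. Endpoints are linearly interpolated between the surrounding concentrations. GI50 marks 50% less growth. TGI marks complete inhibition of growth.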

Columns and labels:
Experiment in all cases: NCI-60 cell line screen, 48 h
[1] = system: DMS 273 small cell lung
[2] = system: HL-60(TB) leukemia
[3] = system: M14 melanoma
[4] = system: MOLT-4 leukemia
[5] = system: ACHN renal
[6] = system: HCT-116 colon
[7] = system: HOP-92 NSCLC
[8] = system: HOP-62 NSCLC
[9] = system: LXFL 529 NSCLC
[10] = system: DLD-1 colon
[11] = system: SK-MEL-2 melanoma
[12] = system: SF-268 CNS
[13] = system: M19-MEL melanoma
[14] = system: XF 498 CNS
[15] = system: SN12C renal
[16] = system: UO-31 renal
[17] = system: DMS 114 small cell lung
[18] = system: CAKI-1 renal
[19] = system: SK-OV-3 ovarian
[20] = system: K-562 leukemia
[21] = system: OVCAR-4 ovarian
[22] = system: 786-0 renal
[23] = system: IGROV1 ovarian
[24] = system: SF-539 CNS
[25] = system: CCRF-CEM leukemia
[26] = system: NCI-H23 lung
[27] = system: SNB-75 CNS
[28] = system: HCC-2998 colon
[29] = system: UACC-62 melanoma
[30] = system: A498 renal
[31] = system: NCI-H226 lung
[32] = system: RPMI-8226 leukemia
[33] = system: NCI-H522 lung
[34] = system: SNB-78 CNS
[35] = system: SR leukemia
[36] = system: SK-MEL-28 melanoma
[37] = system: COLO 205 colon
[38] = system: MALME-3M melanoma
[39] = system: LOX IMVI melanoma
[40] = system: SF-295 CNS
[41] = system: TK-10 renal
[42] = system: OVCAR-3 ovarian
[43] = system: HT29 colon
[44] = system: SW-620 colon
[45] = system: EKVX NSCLC
[46] = system: RXF 393 renal
[47] = system: SNB-19 CNS
[48] = system: NCI-H460 lung
[49] = system: U251 CNS
[50] = system: HOP-18 NSCLC
[51] = system: OVCAR-8 ovarian
[52] = system: A549 NSCLC
[53] = system: KM20L2 colon
[54] = system: SK-MEL-5 melanoma
[55] = system: KM12 colon
[56] = system: HCT-15 colon
[57] = system: OVCAR-5 ovarian
[58] = system: UACC-257 melanoma
[59] = system: RXF-631 renal

## COc1ccc(/C=N/Nc2nc(C)c3c(n2)Nc2ccccc2NC3=O)cc1
[1]
  TGI: > 100 µM
[2]
  TGI: > 100 µM
[3]
  TGI: > 100 µM
[4]
  TGI: > 100 µM
[5]
  TGI: > 100 µM
[6]
  TGI: > 100 µM
[7]
  TGI: > 100 µM
[8]
  TGI: > 100 µM
[9]
  TGI: > 100 µM
[10]
  TGI: > 100 µM
[11]
  TGI: > 100 µM
[12]
  TGI: > 100 µM
[13]
  TGI: > 100 µM
[14]
  TGI: > 100 µM
[15]
  TGI: > 100 µM
[16]
  TGI: > 100 µM
[17]
  TGI: > 100 µM
[18]
  TGI: > 100 µM
[19]
  TGI: > 100 µM
[20]
  TGI: > 100 µM
[21]
  TGI: > 100 µM
[22]
  TGI: > 100 µM
[23]
  TGI: > 100 µM
[24]
  TGI: > 100 µM
[25]
  TGI: > 100 µM
[26]
  TGI: > 100 µM
[27]
  TGI: > 100 µM
[28]
  TGI: > 100 µM
[29]
  TGI: > 100 µM
[30]
  TGI: > 100 µM
[31]
  TGI: > 100 µM
[32]
  TGI: > 100 µM
[33]
  TGI: > 100 µM
[34]
  TGI: > 100 µM
[35]
  TGI: > 100 µM
[36]
  TGI: > 100 µM
[37]
  TGI: > 100 µM
[38]
  TGI: > 100 µM

## Cn1ccnc1C[N-]Cc1nccn1C.O=[N+]([O-])[O-].O=[N+]([O-])[O-].[Cu+2]
[39]
  GI50: > 100 µM
  TGI: > 100 µM
[1]
  GI50: 73.8 µM
  TGI: > 100 µM
[2]
  GI50: > 100 µM
  TGI: > 100 µM
[40]
  GI50: > 100 µM
  TGI: > 100 µM
[41]
  GI50: > 100 µM
  TGI: > 100 µM
[3]
  GI50: > 100 µM
  TGI: > 100 µM
[4]
  GI50: > 100 µM
  TGI: > 100 µM
[42]
  GI50: > 100 µM
  TGI: > 100 µM
[43]
  GI50: > 100 µM
  TGI: > 100 µM
[6]
  GI50: > 100 µM
  TGI: > 100 µM
[8]
  GI50: > 100 µM
  TGI: > 100 µM
[9]
  GI50: > 100 µM
  TGI: > 100 µM
[44]
  GI50: > 100 µM
  TGI: > 100 µM
[10]
  GI50: > 100 µM
  TGI: > 100 µM
[12]
  GI50: > 100 µM
  TGI: > 100 µM
[45]
  GI50: > 100 µM
  TGI: > 100 µM
[15]
  GI50: > 100 µM
  TGI: > 100 µM
[17]
  GI50: > 100 µM
  TGI: > 100 µM
[46]
  GI50: > 100 µM
  TGI: > 100 µM
[19]
  GI50: > 100 µM
  TGI: > 100 µM
[20]
  GI50: > 100 µM
  TGI: > 100 µM
[47]
  GI50: > 100 µM
  TGI: > 100 µM
[48]
  GI50: 62.8 µM
  TGI: > 100 µM
[49]
  GI50: > 100 µM
  TGI: > 100 µM
[21]
  GI50: 2490 nM
  TGI: > 100 µM
[50]
  GI50: > 100 µM
  TGI: > 100 µM
[51]
  GI50: > 100 µM
  TGI: > 100 µM
[52]
  GI50: > 100 µM
  TGI: > 100 µM
[22]
  GI50: > 100 µM
  TGI: > 100 µM
[23]
  GI50: > 100 µM
  TGI: > 100 µM
[24]
  GI50: > 100 µM
  TGI: > 100 µM
[25]
  GI50: > 100 µM
  TGI: > 100 µM
[26]
  GI50: > 100 µM
  TGI: > 100 µM
[27]
  GI50: > 100 µM
  TGI: > 100 µM
[28]
  GI50: > 100 µM
  TGI: > 100 µM
[29]
  GI50: 25.8 µM
  TGI: > 100 µM
[53]
  GI50: > 100 µM
  TGI: > 100 µM
[31]
  GI50: > 100 µM
  TGI: > 100 µM
[32]
  GI50: > 100 µM
  TGI: > 100 µM
[33]
  GI50: > 100 µM
  TGI: > 100 µM
[34]
  GI50: > 100 µM
  TGI: > 100 µM
[54]
  GI50: > 100 µM
  TGI: > 100 µM
[36]
  GI50: > 100 µM
  TGI: > 100 µM
[37]
  GI50: > 100 µM
  TGI: > 100 µM
[55]
  GI50: > 100 µM
  TGI: > 100 µM

## C[N+](C)(C)CC1CCCC/C1=N\O (centres undefined)
[39]
  TGI: > 100 µM
[1]
  TGI: > 100 µM
[2]
  TGI: > 100 µM
[40]
  TGI: > 100 µM
[41]
  TGI: > 100 µM
[3]
  TGI: > 100 µM
[4]
  TGI: > 100 µM
[5]
  TGI: > 100 µM
[42]
  TGI: > 100 µM
[43]
  TGI: > 100 µM
[6]
  TGI: > 100 µM
[7]
  TGI: > 100 µM
[8]
  TGI: > 100 µM
[9]
  TGI: > 100 µM
[44]
  TGI: > 100 µM
[10]
  TGI: > 100 µM
[11]
  TGI: > 100 µM
[12]
  TGI: > 100 µM
[45]
  TGI: > 100 µM
[15]
  TGI: > 100 µM
[16]
  TGI: > 100 µM
[17]
  TGI: > 100 µM
[46]
  TGI: > 100 µM
[19]
  TGI: > 100 µM
[56]
  TGI: > 100 µM
[20]
  TGI: > 100 µM
[47]
  TGI: > 100 µM
[57]
  TGI: > 100 µM
[58]
  TGI: > 100 µM
[48]
  TGI: > 100 µM
[49]
  TGI: > 100 µM
[21]
  TGI: > 100 µM
[50]
  TGI: > 100 µM
[51]
  TGI: > 100 µM
[52]
  TGI: > 100 µM
[22]
  TGI: > 100 µM
[23]
  TGI: > 100 µM
[24]
  TGI: > 100 µM
[25]
  TGI: > 100 µM
[26]
  TGI: > 100 µM
[28]
  TGI: > 100 µM
[29]
  TGI: > 100 µM
[30]
  TGI: > 100 µM
[53]
  TGI: > 100 µM
[32]
  TGI: > 100 µM
[33]
  TGI: > 100 µM
[59]
  TGI: > 100 µM
[34]
  TGI: > 100 µM
[36]
  TGI: > 100 µM
[37]
  TGI: > 100 µM
[55]
  TGI: > 100 µM
[38]
  TGI: > 100 µM

## NC(=O)N/N=C(/c1nc2ccc([N+](=O)[O-])cc2[nH]c1=O)C(O)c1ccco1 (centres undefined)
[39]
  TGI: > 100 µM
[1]
  TGI: > 100 µM
[2]
  TGI: > 100 µM
[40]
  TGI: > 100 µM
[41]
  TGI: > 100 µM
[3]
  TGI: > 100 µM
[4]
  TGI: > 100 µM
[5]
  TGI: > 100 µM
[42]
  TGI: > 100 µM
[43]
  TGI: > 100 µM
[6]
  TGI: > 100 µM
[7]
  TGI: > 100 µM
[8]
  TGI: 94.6 µM
[9]
  TGI: > 100 µM
[44]
  TGI: > 100 µM
[10]
  TGI: > 100 µM
[12]
  TGI: > 100 µM
[13]
  TGI: > 100 µM
[14]
  TGI: > 100 µM
[15]
  TGI: 33.5 µM
[16]
  TGI: > 100 µM
[17]
  TGI: > 100 µM
[18]
  TGI: > 100 µM
[46]
  TGI: > 100 µM
[19]
  TGI: > 100 µM
[56]
  TGI: 61 µM
[20]
  TGI: > 100 µM
[47]
  TGI: > 100 µM
[57]
  TGI: > 100 µM
[58]
  TGI: > 100 µM
[48]
  TGI: > 100 µM
[49]
  TGI: > 100 µM
[21]
  TGI: > 100 µM
[51]
  TGI: > 100 µM
[52]
  TGI: > 100 µM
[22]
  TGI: > 100 µM
[23]
  TGI: > 100 µM
[24]
  TGI: 30.9 µM
[25]
  TGI: > 100 µM
[26]
  TGI: > 100 µM
[27]
  TGI: > 100 µM
[28]
  TGI: 85.3 µM
[29]
  TGI: > 100 µM
[53]
  TGI: 66.4 µM
[31]
  TGI: > 100 µM
[32]
  TGI: > 100 µM
[33]
  TGI: > 100 µM
[59]
  TGI: > 100 µM
[34]
  TGI: > 100 µM
[35]
  TGI: > 100 µM
[54]
  TGI: > 100 µM
[36]
  TGI: > 100 µM
[37]
  TGI: > 100 µM
[38]
  TGI: > 100 µM
